# pIC50: −log10 of the molar value.
# Molecular target: BRD4 (Homo sapiens, UniProt O60885)
# Assay: biochemical
# Assay type: binding
# Conditions: one of the FRET assays described; read-out: FRET BRD4 IC50
row,Structure (SMILES),pIC50
1,"[2H]C([2H])([2H])c1nnn(C)c1-c1cc2c(cc1F)c1ncc(C(C)(C)O)cc1n2C(c1ccc(C)cn1)C1CCOCC1 (single isomer, unassigned) [Example 56, 2-{8-fluoro-7-[4-(^2H3)methyl-1-methyl-1H-1,2,3-triazol-5-yl]-5-[(5-methylpyridin-2-yl)(oxan-4-yl)methyl]-5H-pyrido[3,2-b]indol-3-yl}propan-2-ol]",> 8.30
2,"[2H]C([2H])([2H])c1nnn(C)c1-c1cc2c(cc1F)c1ncc(C(C)(C)O)cc1n2C(c1ccc(C)cn1)C1CCOCC1 (single isomer, unassigned) [Example 57, 2-{8-fluoro-7-[4-(^2H3)methyl-1-methyl-1H-1,2,3-triazol-5-yl]-5-[(5-methylpyridin-2-yl)(oxan-4-yl)methyl]-5H-pyrido[3,2-b]indol-3-yl}propan-2-ol]",> 5.82
3,"[2H]C([2H])([2H])c1nnn(C)c1-c1cc2c(cc1F)c1ncc(C(C)(C)O)cc1n2C(CCC)c1ccc(F)cn1 (single isomer, unassigned) [Example 59, 2-{8-fluoro-5-[1-(5-fluoropyridin-2-yl)butyl]-7-[4-(^2H3)methyl-1-methyl-1H-1,2,3-triazol-5-yl]-5H-pyrido[3,2-b]indol-3-yl}propan-2-ol]",> 8.30
4,"[2H]C([2H])([2H])c1nnn(C)c1-c1cc2c(cc1F)c1ncc(C(C)(C)O)cc1n2C(CCOC)c1ccccc1 (single isomer, unassigned) [Example 62, 2-[8-fluoro-5-(3-methoxy-1-phenylpropyl)-7-[4-(^2H3)methyl-1-methyl-1H-1,2,3-triazol-5-yl]-5H-pyrido[3,2-b]indol-3-yl]propan-2-ol]",> 5.82
5,"[2H]C([2H])([2H])c1nnn(C)c1-c1cc2c(cc1F)c1ncc(C(C)(C)O)cc1n2C(CCOC)c1ccccc1 (single isomer, unassigned) [Example 63, 2-[8-fluoro-5-(3-methoxy-1-phenylpropyl)-7-[4-(^2H3)methyl-1-methyl-1H-1,2,3-triazol-5-yl]-5H-pyrido[3,2-b]indol-3-yl]propan-2-ol]",> 8.30
6,"[2H]C([2H])([2H])c1nnn(C)c1-c1cc2c(cc1F)c1ncc(C(C)(C)O)cc1n2C(c1ccccc1)C1(C)COC1 (single isomer, unassigned) [Example 64, 2-{8-fluoro-7-[4-(^2H3)methyl-1-methyl-1H-1,2,3-triazol-5-yl]-5-[(3-methyloxetan-3-yl)(phenyl)methyl]-5H-pyrido[3,2-b]indol-3-yl}propan-2-ol]",> 8.30
7,"[2H]C([2H])([2H])c1nnn(C)c1-c1cc2c(cc1F)c1ncc(C(C)(C)O)cc1n2C(c1ccccc1)C1(C)COC1 (single isomer, unassigned) [Example 65, 2-{8-fluoro-7-[4-(^2H3)methyl-1-methyl-1H-1,2,3-triazol-5-yl]-5-[(3-methyloxetan-3-yl)(phenyl)methyl]-5H-pyrido[3,2-b]indol-3-yl}propan-2-ol]",> 5.82
8,"[2H]C([2H])([2H])c1nnn(C)c1-c1cc2c(cc1F)c1ncc(C(C)(C)O)cc1n2C(c1ccccc1)C1COC1 (single isomer, unassigned) [Example 67, 2-{8-fluoro-7-[4-(^2H3)methyl-1-methyl-1H-1,2,3-triazol-5-yl]-5-[oxetan-3-yl(phenyl)methyl]-5H-pyrido[3,2-b]indol-3-yl}propan-2-ol]",> 8.30
9,"[2H]C([2H])([2H])c1nnn(C)c1-c1cc2c(cc1F)c1ncc(C(C)(C)O)cc1n2C(c1ccccc1)C1COC1 (single isomer, unassigned) [Example 68, 2-{8-fluoro-7-[4-(^2H3)methyl-1-methyl-1H-1,2,3-triazol-5-yl]-5-[oxetan-3-yl(phenyl)methyl]-5H-pyrido[3,2-b]indol-3-yl}propan-2-ol]",> 5.82
10,"Cc1nnn(C)c1-c1cc2c(cc1F)c1ncc(C(C)(C)O)cc1n2C(c1ccc(F)cn1)C1CCOCC1 (single isomer, unassigned) [Example 69, 2-[7-(dimethyl-1H-1,2,3-triazol-5-yl)-8-fluoro-5-[(5-fluoropyridin-2-yl)(oxan-4-yl)methyl]-5H-pyrido[3,2-b]indol-3-yl]propan-2-ol]",> 5.82
11,"Cc1nnn(C)c1-c1cc2c(cc1F)c1ncc(C(C)(C)O)cc1n2C(c1ccc(F)cn1)C1CCOCC1 (single isomer, unassigned) [Example 70, 2-[7-(dimethyl-1H-1,2,3-triazol-5-yl)-8-fluoro-5-[(5-fluoropyridin-2-yl)(oxan-4-yl)methyl]-5H-pyrido[3,2-b]indol-3-yl]propan-2-ol]",> 8.30
12,"[2H]C([2H])([2H])c1nnn(C)c1-c1ccc2c3ncc(C(C)(C)O)cc3n(C(c3ncccc3F)C3CCOCC3)c2c1 (single isomer, unassigned) [Example 71, 2-{5-[(3-Fluoropyridin-2-yl)(oxan-4-yl)methyl]-7-[4-(^2H3)methyl-1-methyl-1H-1,2,3-triazol-5-yl]-5H-pyrido[3,2-b]indol-3-yl}propan-2-ol]",> 9.00
13,"[2H]C([2H])([2H])c1nnn(C)c1-c1ccc2c3ncc(C(C)(C)O)cc3n(C(c3ncccc3F)C3CCOCC3)c2c1 (single isomer, unassigned) [Example 72, 2-{5-[(3-Fluoropyridin-2-yl)(oxan-4-yl)methyl]-7-[4-(^2H3)methyl-1-methyl-1H-1,2,3-triazol-5-yl]-5H-pyrido[3,2-b]indol-3-yl}propan-2-ol]",> 9.00
14,"[2H]C([2H])([2H])c1nnn(C)c1-c1ccc2c3ncc(C(C)(C)O)cc3n(C(c3cc(C)on3)C3CCOCC3)c2c1 (single isomer, unassigned) [Example 73, 2-{5-[(5-methyl-1,2-oxazol-3-yl)(oxan-4-yl)methyl]-7-[4-(^2H3)methyl-1-methyl-1H-1,2,3-triazol-5-yl]-5H-pyrido[3,2-b]indol-3-yl}propan-2-ol]",> 8.30
15,"[2H]C([2H])([2H])c1nnn(C)c1-c1ccc2c3ncc(C(C)(C)O)cc3n(C(c3cc(C)on3)C3CCOCC3)c2c1 (single isomer, unassigned) [Example 74, 2-{5-[(5-methyl-1,2-oxazol-3-yl)(oxan-4-yl)methyl]-7-[4-(^2H3)methyl-1-methyl-1H-1,2,3-triazol-5-yl]-5H-pyrido[3,2-b]indol-3-yl}propan-2-ol]",> 5.82
16,"[2H]C([2H])([2H])c1nnn(C)c1-c1cc2c(cc1Cl)c1ncc(C(C)(C)O)cc1n2C(c1ncccc1F)C1CCOCC1 (single isomer, unassigned) [Example 75, 2-{8-Chloro-5-[(3-fluoropyridin-2-yl)(oxan-4-yl)methyl]-7-[4-(^2H3)methyl-1-methyl-1H-1,2,3-triazol-5-yl]-5H-pyrido[3,2-b]indol-3-yl}propan-2-ol]",> 5.82
17,"[2H]C([2H])([2H])c1nnn(C)c1-c1cc2c(cc1Cl)c1ncc(C(C)(C)O)cc1n2C(c1ncccc1F)C1CCOCC1 (single isomer, unassigned) [Example 76, 2-{8-Chloro-5-[(3-fluoropyridin-2-yl)(oxan-4-yl)methyl]-7-[4-(^2H3)methyl-1-methyl-1H-1,2,3-triazol-5-yl]-5H-pyrido[3,2-b]indol-3-yl}propan-2-ol]",> 5.82
18,"[2H]C([2H])([2H])c1nnn(C)c1-c1cc2c(cc1Cl)c1ncc(C(C)(C)O)cc1n2C(c1cc(C)on1)C1CCOCC1 (single isomer, unassigned) [Example 78, 2-{8-chloro-5-[(5-methyl-1,2-oxazol-3-yl)(oxan-4-yl)methyl]-7-[4-(^2H3)methyl-1-methyl-1H-1,2,3-triazol-5-yl]-5H-pyrido[3,2-b]indol-3-yl}propan-2-ol]",> 5.82
19,"[2H]C([2H])([2H])c1nnn(C)c1-c1cc2c(cc1Cl)c1ncc(C(C)(C)O)cc1n2C(c1cc(C)on1)C1CCOCC1 (single isomer, unassigned) [Example 79, 2-{8-chloro-5-[(5-methyl-1,2-oxazol-3-yl)(oxan-4-yl)methyl]-7-[4-(^2H3)methyl-1-methyl-1H-1,2,3-triazol-5-yl]-5H-pyrido[3,2-b]indol-3-yl}propan-2-ol]",> 5.82
20,"[2H]C([2H])([2H])c1nnn(C)c1-c1cc2c(cc1Cl)c1ncc(C(C)(C)O)cc1n2C(c1ccccn1)C1CCOCC1 (single isomer, unassigned) [Example 80, 2-{8-chloro-7-[4-(^2H3)methyl-1-methyl-1H-1,2,3-triazol-5-yl]-5-[oxan-4-yl(pyridin-2-yl)methyl]-5H-pyrido[3,2-b]indol-3-yl}propan-2-ol]",> 5.82
21,"[2H]C([2H])([2H])c1nnn(C)c1-c1cc2c(cc1Cl)c1ncc(C(C)(C)O)cc1n2C(c1ccccn1)C1CCOCC1 (single isomer, unassigned) [Example 81, 2-{8-chloro-7-[4-(^2H3)methyl-1-methyl-1H-1,2,3-triazol-5-yl]-5-[oxan-4-yl(pyridin-2-yl)methyl]-5H-pyrido[3,2-b]indol-3-yl}propan-2-ol]",> 5.82
22,"[2H]C([2H])([2H])c1nnn(C)c1-c1cc2c(cc1Cl)c1ncc(C(C)(C)O)cc1n2C(CCC)c1ncccc1F (single isomer, unassigned) [Example 82, 2-{8-chloro-5-[1-(3-fluoropyridin-2-yl)butyl]-7-[4-(^2H3)methyl-1-methyl-1H-1,2,3-triazol-5-yl]-5H-pyrido[3,2-b]indol-3-yl}propan-2-ol]",> 5.82
23,"[2H]C([2H])([2H])c1nnn(C)c1-c1cc2c(cc1Cl)c1ncc(C(C)(C)O)cc1n2C(CCC)c1ncccc1F (single isomer, unassigned) [Example 83, 2-{8-chloro-5-[1-(3-fluoropyridin-2-yl)butyl]-7-[4-(^2H3)methyl-1-methyl-1H-1,2,3-triazol-5-yl]-5H-pyrido[3,2-b]indol-3-yl}propan-2-ol]",> 8.30
24,"[2H]C([2H])([2H])c1nnn(C)c1-c1ccc2c3ncc(C(C)(C)O)cc3n(C(c3ncccc3F)C3CCOCC3)c2c1F (single isomer, unassigned) [Example 84, 2-{6-Fluoro-5-[(3-fluoropyridin-2-yl)(oxan-4-yl)methyl]-7-[4-(^2H3)methyl-1-methyl-1H-1,2,3-triazol-5-yl]-5H-pyrido[3,2-b]indol-3-yl}propan-2-ol]",> 8.30
